This note sets out measurements from patent US20240101544A1, “INHIBITORS OF QPCTL AND QPCT” (priority 2022, published 2024).

In test [1] the target is QPCTL (Homo sapiens (Human), UniProt Q9NXS2). Kind of test: QPCTL Enzymatic Activity Assay (coupled-enzyme fluorescent assay, H-Gln-AMC substrate). Type of test: biochemical. As to conditions: recombinant truncated human QPCTL 10-12 nM, 10 μM H-Gln-AMC; read-out: QPCTL Inhibition IC50. How it is done: Protein expression was induced when the bacterial culture OD600 was approximately 0.7 using 1 mM IPTG and the cells incubated at 20° C. for approximately 16 hours. The QPCTL was purified using nickel column purification, digested by TEV, followed by a second nickel column purification. The protein was further purified by size-exclusion chromatography using a Superdex™ 75 column. The final protein was concentrated using ultrafiltration tubes at a molecular weight cutoff of 10 kilodaltons and stored frozen in protein buffer (25 mM Tris pH 8.3, 150 mM NaCl).
Sequence of QPCTL (Q9NXS2 53-382): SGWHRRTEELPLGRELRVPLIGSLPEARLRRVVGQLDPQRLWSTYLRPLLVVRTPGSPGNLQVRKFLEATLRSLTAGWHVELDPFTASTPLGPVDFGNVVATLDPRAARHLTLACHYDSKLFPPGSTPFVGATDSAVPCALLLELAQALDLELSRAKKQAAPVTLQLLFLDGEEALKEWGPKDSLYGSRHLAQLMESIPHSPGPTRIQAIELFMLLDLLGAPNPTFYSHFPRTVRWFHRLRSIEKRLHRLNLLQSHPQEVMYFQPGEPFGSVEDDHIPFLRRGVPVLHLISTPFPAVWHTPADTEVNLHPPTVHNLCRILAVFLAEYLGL
QPCTL activity was measured in a coupled-enzyme assay using the QPCTL substrate, glutamine-7-amido-4-methylcoumarin (H-Gln-AMC, Bachem), which is converted to pyroglutamyl-AMC by QPCTL. Pyroglutamyl-AMC is then converted to the fluorescent molecule, AMC, by incubation with the human enzyme pyroglutamyl peptidase-1. […] Final concentrations of DMSO and test compounds were 2% and 30-100 μM, respectively. Following the incubation, H-Gln-AMC substrate was diluted in assay buffer and added to each well for a final concentration of 10 μM. The reaction was incubated for 60 min at 37° C., before stopping it by boiling at 100° C. for 5 minutes and cooling the plate at 4° C. for 3 minutes. […] Following incubation, the fluorescence was measured with a plate reader using excitation at 380 nm and emission at 460 nm. […] Concentration-response-curves and IC50 values (Table 17) were generated using curve fit software.

In test [2] the target is QPCT (rhQPCT) (Homo sapiens (Human), UniProt Q16769). Kind of test: QPCT Enzymatic Activity Assay (coupled-enzyme fluorescent assay, H-Gln-AMC substrate). It counts as biochemical. The settings on record: rhQPCT 10-12 nM, 10 μM H-Gln-AMC; read-out: QPCT Inhibition IC50. The protocol:
QPCT activity was measured in a coupled-enzyme assay using the QPCT substrate, glutamine-7-amido-4-methylcoumarin (H-Gln-AMC, Bachem), which is converted to pyroglutamyl-AMC by QPCT. Pyroglutamyl-AMC is then converted to the fluorescent molecule, AMC, by incubation with the human enzyme pyroglutamyl peptidase-1 (PGPEP-1). […] Following the incubation, H-Gln-AMC substrate was diluted in assay buffer and added to each well for a final concentration of 10 μM. The reaction was incubated for 60 min at 37° C., before stopping it by boiling at 100° C. for 5 minutes and cooling the plate at 4° C. for 3 minutes. […] Following incubation, the fluorescence was measured with a plate reader using excitation at 380 nm and emission at 460 nm. […] Concentration-response-curves and IC50 values (Table 17) were generated using Collaborative Drug Discovery software.

SMILES strings stand for the structures. Some results are limits rather than exact numbers.

Sequence of QPCT (rhQPCT) (Q16769 29-361): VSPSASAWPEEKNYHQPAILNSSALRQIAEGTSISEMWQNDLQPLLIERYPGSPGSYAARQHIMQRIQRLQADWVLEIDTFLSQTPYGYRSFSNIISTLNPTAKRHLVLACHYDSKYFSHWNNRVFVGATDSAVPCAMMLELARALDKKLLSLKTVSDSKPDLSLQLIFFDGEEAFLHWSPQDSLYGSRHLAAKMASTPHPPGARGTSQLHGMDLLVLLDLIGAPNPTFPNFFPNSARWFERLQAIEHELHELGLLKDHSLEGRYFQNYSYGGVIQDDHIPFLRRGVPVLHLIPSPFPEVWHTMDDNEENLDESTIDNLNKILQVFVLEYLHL

On to `Cn1cnnc1C1CCN(c2c(C#N)cccc2-c2ccc(OS(=O)(=O)F)nc2)CC1` [Example 119, 5-(3-cyano-2-(4-(4-methyl-4H-1,2,4-triazol-3-yl)piperidin-1-yl)phenyl)pyridin-2-yl sulfurofluoridate], for which the IC50 was less than 100 nM in test [1] and 100 to 1000 nM in test [2].

Turning to `Cc1cc(-c2c(F)ccc(C#N)c2N2CCC(c3nncn3C)CC2)cnn1` [Example 59, 4-fluoro-2-(4-(4-methyl-4H-1,2,4-triazol-3-yl)piperidin-1-yl)-3-(6-methylpyridazin-4-yl)benzonitrile], the IC50 in test [1] and in test [2] was 100 to 1000 nM throughout.

`Cn1cnnc1N1CCN(c2c(-c3ccc(F)nc3)ccc(C3CC3)c2C#N)CC1` [Example 129, 6-cyclopropyl-3-(6-fluoropyridin-3-yl)-2-(4-(4-methyl-4H-1,2,4-triazol-3-yl)piperazin-1-yl)benzonitrile]: the IC50 in test [1] and in test [2] was less than 100 nM each time.

As to `[2H]C([2H])([2H])n1cnnc1C1CCN(c2c(-c3ccc(F)nc3)ccc(-c3cnn(C)c3)c2C#N)CC1` [Example 54, 3-(6-fluoropyridin-3-yl)-6-(1-methyl-1H-pyrazol-4-yl)-2-(4-(4-(methyl-d3)-4H-1,2,4-triazol-3-yl)piperidin-1-yl)benzonitrile], the IC50 in test [1] and in test [2] was less than 100 nM throughout.

As for `Cn1ccc(-c2cc(F)c(-c3ccc(F)nc3)c(N3CCC(c4nncn4C)CC3)c2C#N)n1` [Example 131, 4-fluoro-3-(6-fluoropyridin-3-yl)-6-(1-methyl-1H-pyrazol-3-yl)-2-(4-(4-methyl-4H-1,2,4-triazol-3-yl)piperidin-1-yl)benzonitrile], the IC50 in test [1] is 1000 to 10000 nM; in test [2], 100 to 1000 nM.

Turning to `C#Cc1ccc(-c2cccc(C#N)c2N2CCC(c3nncn3C)CC2)cc1C=O` [Example 128, 4′-ethynyl-3′-formyl-2-(4-(4-methyl-4H-1,2,4-triazol-3-yl)piperidin-1-yl)-[1,1′-biphenyl]-3-carbonitrile], the IC50 in test [1] is 100 to 1000 nM; in test [2], less than 100 nM.

Regarding `Cn1cnnc1C1CCN(c2c(C#N)cccc2-c2cncc(OS(=O)(=O)F)c2)CC1` [Example 118, 5-(3-cyano-2-(4-(4-methyl-4H-1,2,4-triazol-3-yl)piperidin-1-yl)phenyl)pyridin-3-yl sulfurofluoridate], the IC50 in test [1] and in test [2] was less than 100 nM each time.

Regarding `COc1ccncc1-c1cccc(C#N)c1N1CCC(c2cnc(N)s2)CC1` [Example 17, 2-[4-(2-amino-1,3-thiazol-5-yl)piperidin-1-yl]-3-(4-methoxypyridin-3-yl)benzonitrile], the IC50 in test [1] and in test [2] was 100 to 1000 nM throughout.

For `Cn1cnnc1C1CCN(c2c(-c3ccc(F)nc3)ccc(OC3CCOC3)c2C#N)CC1` (single isomer, unassigned) [Example 89, 3-(6-fluoropyridin-3-yl)-2-(4-(4-methyl-4H-1,2,4-triazol-3-yl)piperidin-1-yl)-6-((tetrahydrofuran-3-yl)oxy)benzonitrile], the IC50 in test [1] and in test [2] was less than 100 nM each time.

For the compound `COc1ccncc1-c1cccc(C#N)c1N1CCC(n2cnnc2C)CC1` [Example 18, 3-(4-methoxypyridin-3-yl)-2-[4-(3-methyl-4H-1,2,4-triazol-4-yl)piperidin-1-yl]benzonitrile], the IC50 in test [1] and in test [2] was greater than 10000 nM each time.

As for `Cn1cnnc1C1CCN(c2c(C#N)cccc2-c2cncc3c2OCCN3)CC1` [Example 20, 2-[4-(4-methyl-4H-1,2,4-triazol-3-yl)piperidin-1-yl]-3-{2H,3H,4H-pyrido[4,3-b][1,4]oxazin-8-yl}benzonitrile], the IC50 is 100 to 1000 nM in test [1] and less than 100 nM in test [2].

Regarding `[2H]C([2H])([2H])Oc1ccc(-c2ccc(F)nc2)c(N2CCC(c3nncn3C)CC2)c1C#N` [Example 57, 3-(6-fluoropyridin-3-yl)-6-(methoxy-d3)-2-(4-(4-methyl-4H-1,2,4-triazol-3-yl)piperidin-1-yl)benzonitrile], the IC50 in test [1] and in test [2] was less than 100 nM in each case.

As to `CN1CCOc2c(-c3cccc(C#N)c3N3CCC(c4nncn4C)CC3)cncc21` [Example 22, 3-{4-methyl-2H,3H,4H-pyrido[4,3-b][1,4]oxazin-8-yl}-2-[4-(4-methyl-4H-1,2,4-triazol-3-yl)piperidin-1-yl]benzonitrile], the IC50 in test [1] and in test [2] was 100 to 1000 nM in each case.

In the case of `Cn1cnnc1C1CCN(c2c(C#N)cc(F)cc2-c2ccc(F)nc2)CC1` [Example 130, 5-fluoro-3-(6-fluoropyridin-3-yl)-2-(4-(4-methyl-4H-1,2,4-triazol-3-yl)piperidin-1-yl)benzonitrile], the IC50 in test [1] and in test [2] was 1000 to 10000 nM in each case.

`[2H]C([2H])([2H])n1cnnc1C1CCN(c2c(-c3ccnnc3)ccc(-c3cnn(C)c3)c2C#N)CC1` [Example 55, 6-(1-methyl-1H-pyrazol-4-yl)-2-(4-(4-(methyl-d3)-4H-1,2,4-triazol-3-yl)piperidin-1-yl)-3-(pyridazin-4-yl)benzonitrile]: the IC50 in test [1] and in test [2] was less than 100 nM throughout.

As to `Cn1cnnc1C1CCN(c2c(C#N)cccc2-c2cnc3cn[nH]c3c2)CC1` [Example 125, 2-(4-(4-methyl-4H-1,2,4-triazol-3-yl)piperidin-1-yl)-3-(1H-pyrazolo[4,3-b]pyridin-6-yl)benzonitrile], the IC50 in test [1] is 100 to 1000 nM; in test [2] it was less than 100 nM.

As to `Cn1cnnc1C1CCN(c2c(C#N)cccc2-c2ccc(B(O)O)cc2)CC1` [Example 111, (3′-cyano-2′-(4-(4-methyl-4H-1,2,4-triazol-3-yl)piperidin-1-yl)-[1,1′-biphenyl]-4-yl)boronic acid], the IC50 in test [1] is 100 to 1000 nM; in test [2] it was less than 100 nM.

`Cn1cnnc1C1CCN(c2c(C#N)cccc2-c2ccc3[nH]nc(O)c3c2)CC1` [Example 113, 3-(3-hydroxy-1H-indazol-5-yl)-2-(4-(4-methyl-4H-1,2,4-triazol-3-yl)piperidin-1-yl)benzonitrile]: the IC50 in test [1] and in test [2] was less than 100 nM each time.

For the compound `Cn1cnnc1C1CCN(c2c(C#N)cccc2-c2cncc3c2OCCN3CCO)CC1` [Example 23, 3-[4-(2-hydroxyethyl)-2H,3H,4H-pyrido[4,3-b][1,4]oxazin-8-yl]-2-[4-(4-methyl-4H-1,2,4-triazol-3-yl)piperidin-1-yl]benzonitrile], the IC50 in test [1] and in test [2] was 100 to 1000 nM in each case.

For `Cn1ccc(-c2cnc(-c3ccc(F)nc3)c(N3CCC(c4nncn4C)CC3)c2C#N)n1` [Example 138, 6′-fluoro-5-(1-methyl-1H-pyrazol-3-yl)-3-(4-(4-methyl-4H-1,2,4-triazol-3-yl)piperidin-1-yl)-[2,3′-bipyridine]-4-carbonitrile], the IC50 in test [1] is greater than 10000 nM; in test [2] it was 1000 to 10000 nM.

Consider `N#Cc1cccc(-c2ccc(F)nc2)c1N1CCC(c2nnc[nH]2)CC1` [Example 49, 2-(4-(4H-1,2,4-triazol-3-yl)piperidin-1-yl)-3-(6-fluoropyridin-3-yl)benzonitrile], for which the IC50 in test [1] and in test [2] was 100 to 1000 nM in each case.

For `Cn1cnnc1C1CCN(c2c(C#N)cccc2-c2ccc(F)c(F)c2)CC1` [Example 102, 3′,4′-difluoro-2-(4-(4-methyl-4H-1,2,4-triazol-3-yl)piperidin-1-yl)-[1,1′-biphenyl]-3-carbonitrile], the IC50 was 100 to 1000 nM in test [1] and less than 100 nM in test [2].

As for `Cn1cnnc1C1CCN(c2c(C#N)cccc2-c2cnccc2O)CC1` [Example 7, 3-(4-hydroxypyridin-3-yl)-2-[4-(4-methyl-4H-1,2,4-triazol-3-yl)piperidin-1-yl]benzonitrile], the IC50 in test [1] and in test [2] was 1000 to 10000 nM throughout.

With `COc1ccncc1-c1cccc(C#N)c1N1CCC(c2nnc(N)s2)CC1` [Example 21, 2-[4-(5-amino-1,3,4-thiadiazol-2-yl)piperidin-1-yl]-3-(4-methoxypyridin-3-yl)benzonitrile], the IC50 in test [1] and in test [2] was 100 to 1000 nM throughout.

On to `COc1ccncc1-c1ccc(-c2ccccc2)c(C#N)c1N1CCC(c2nncn2C)CC1` [Example 32, 4-(4-methoxypyridin-3-yl)-3-[4-(4-methyl-4H-1,2,4-triazol-3-yl)piperidin-1-yl]-[1,1′-biphenyl]-2-carbonitrile], for which the IC50 in test [1] and in test [2] was less than 100 nM each time.
